According to patent publication US7964616B2, “Compounds 679” (AstraZeneca AB, priority 2007, dated 2011):

Columns and labels:
[1] = target: T1, ion channel subunit encoded by the human ether-a-go-go-related gene (hERG) (Homo sapiens, UniProt Q12809); experiment: hERG binding protocol (radioligand competition, HEK cell membranes expressing hERG); settings: for IC50: a 'less than' figure indicates <50% inhibition at the quoted concentration, the highest tested, read-out: hERG pIC50 (converted); for P2X7:hERG Ratio: ratio of P2X7:hERG affinity
T1 construct: expressed in transfected cells; host or cells: HEK (human embryonic kidney) cells, membrane preparation
T1 sequence (Q12809 whole entry): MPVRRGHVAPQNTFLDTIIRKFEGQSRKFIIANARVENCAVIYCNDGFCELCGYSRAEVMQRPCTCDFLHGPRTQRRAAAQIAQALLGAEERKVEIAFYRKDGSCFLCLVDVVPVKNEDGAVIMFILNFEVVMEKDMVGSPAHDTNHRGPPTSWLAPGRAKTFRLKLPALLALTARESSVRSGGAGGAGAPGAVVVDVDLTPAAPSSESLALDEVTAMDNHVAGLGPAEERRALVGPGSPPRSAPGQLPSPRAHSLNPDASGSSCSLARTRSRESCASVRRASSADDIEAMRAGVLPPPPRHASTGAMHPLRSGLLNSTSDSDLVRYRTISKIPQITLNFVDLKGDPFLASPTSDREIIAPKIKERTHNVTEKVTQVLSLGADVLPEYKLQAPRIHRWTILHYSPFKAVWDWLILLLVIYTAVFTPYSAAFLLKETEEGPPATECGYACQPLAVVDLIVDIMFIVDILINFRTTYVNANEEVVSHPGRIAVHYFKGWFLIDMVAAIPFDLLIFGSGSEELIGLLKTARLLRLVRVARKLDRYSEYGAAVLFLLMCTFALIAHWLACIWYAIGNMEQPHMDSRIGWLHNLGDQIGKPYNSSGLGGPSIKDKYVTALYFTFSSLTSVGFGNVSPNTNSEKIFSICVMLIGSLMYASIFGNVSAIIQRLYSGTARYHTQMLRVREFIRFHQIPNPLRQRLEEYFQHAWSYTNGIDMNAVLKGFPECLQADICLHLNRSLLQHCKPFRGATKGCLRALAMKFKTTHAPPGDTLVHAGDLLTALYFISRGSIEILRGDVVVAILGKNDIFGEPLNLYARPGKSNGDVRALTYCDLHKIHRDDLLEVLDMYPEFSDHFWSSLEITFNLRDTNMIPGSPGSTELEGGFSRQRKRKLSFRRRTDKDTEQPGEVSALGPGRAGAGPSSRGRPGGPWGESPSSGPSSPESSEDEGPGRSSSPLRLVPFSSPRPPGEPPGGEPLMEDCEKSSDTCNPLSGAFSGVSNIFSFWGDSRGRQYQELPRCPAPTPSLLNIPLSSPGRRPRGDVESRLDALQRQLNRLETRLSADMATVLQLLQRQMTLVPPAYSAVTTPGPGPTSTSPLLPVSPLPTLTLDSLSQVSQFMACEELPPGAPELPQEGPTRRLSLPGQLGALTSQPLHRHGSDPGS
Procedure: The hERG assay was performed according to the procedure described in WO2005/037052. The affinity (pIC50) of compounds for the ion channel subunit encoded by the human ether-a-go-go-related gene (hERG) gene was determined by competition binding of radioligand 3,7-Bis[2-(4-nitro[3,5-^3H]phenyl)ethyl]-3,7-diazabicyclo[3.3.1]nonane to HEK (human embryonic kidney) cell membranes expressing hERG, in a filter wash format.
Membranes were incubated for 3 hours at room temperature with serial dilutions of the test compounds, radioligand 3,7-Bis[2-(4-nitro[3,5-^3H]phenyl)ethyl]-3,7-diazabicyclo[3.3.1]nonane at 1 nM final concentration, and assay buffer (10 mM HEPES, 130 mM NaCl, 5 mM KCl, 1 mM EGTA, 0.8 mM MgCl2, pH 7.4). The assay was conducted in a final volume of 200 μL, in the presence of 1% (v/v) dimethyl sulphoxide. Non-specific binding was determined by measuring the binding of 3,7-Bis[2-(4-nitro[3,5-^3H]phenyl)ethyl]-3,7-diazabicyclo[3.3.1]nonane in the presence of 10 […]. During this incubation GF/B filter plates were immersed in coating solution 0.3% (v/v) Polyethylenimine and 0.2% (w/v) BSA). Following incubation assay plates were harvested onto precoated GF/B filter plates using a Tomtec harvester.
The pIC50, defined as the negative logarithm of the concentration of compound required for 50% reduction in 3,7-Bis[2-(4-nitro[3,5-^3H]phenyl)ethyl]-3,7-diazabicyclo[3.3.1]nonane binding, was determined. A ‘less than’ figure indicates <50% inhibition at the quoted concentration, this being the highest concentration tested.

[2] = target: T2, P2X7 receptor (Homo sapiens, UniProt Q99572); experiment: P2X7 assay (bbATP-induced ethidium bromide fluorescence in THP-1 cells); format: cell-based; settings: 10^-5M bbATP agonist, read-out: P2X7 pIC50 (converted)
T2 construct: 200 μl of a suspension of THP-1 cells; endogenous in cells; host or cells: THP-1 cells
T2 sequence (Q99572 1-595): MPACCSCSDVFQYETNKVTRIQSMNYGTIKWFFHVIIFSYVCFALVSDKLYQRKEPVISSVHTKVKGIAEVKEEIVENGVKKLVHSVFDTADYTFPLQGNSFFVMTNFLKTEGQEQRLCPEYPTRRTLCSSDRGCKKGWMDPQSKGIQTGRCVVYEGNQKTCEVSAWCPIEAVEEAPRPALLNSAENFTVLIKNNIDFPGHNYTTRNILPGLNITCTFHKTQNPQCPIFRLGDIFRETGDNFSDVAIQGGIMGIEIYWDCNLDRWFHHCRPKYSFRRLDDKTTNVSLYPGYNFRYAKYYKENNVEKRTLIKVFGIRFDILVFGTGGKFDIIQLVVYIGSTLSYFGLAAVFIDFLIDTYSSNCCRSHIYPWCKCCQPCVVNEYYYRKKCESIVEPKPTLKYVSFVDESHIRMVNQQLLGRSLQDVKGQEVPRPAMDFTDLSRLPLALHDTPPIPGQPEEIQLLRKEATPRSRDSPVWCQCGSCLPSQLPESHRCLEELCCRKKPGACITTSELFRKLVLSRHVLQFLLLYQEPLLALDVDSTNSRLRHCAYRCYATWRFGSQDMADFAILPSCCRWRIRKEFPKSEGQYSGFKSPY
Excerpt: Certain compounds such as benzoylbenzoyl adenosine triphosphate (bbATP) are known to be agonists of the P2X7 receptor, effecting the formation of pores in the plasma membrane (Drug Development Research (1996), 37(3), p. 126). Consequently, when the receptor is activated using bbATP in the presence of ethidium bromide (a fluorescent DNA probe), an increase in the fluorescence of intracellular DNA-bound ethidium bromide is observed. The increase in fluorescence can be used as a measure of P2X7 receptor activation and therefore to quantify the effect of a compound on the P2X7 receptor.
In this manner, each of the title compounds of the Examples was tested for antagonist activity at the P2X7 receptor. Thus, the test was performed in 96-well flat bottomed microtitre plates, the wells being filled with 250 μl of test solution comprising 200 μl of a suspension of THP-1 cells (2.5×10^6 cells/ml) containing 10^−4M ethidium bromide, 25 μl of a high potassium buffer solution containing 10^−5M bbATP, and 25 μl of the high potassium buffer solution containing concentrations of test compound typically from 30 μM-0.001 μM. The plate was covered with a plastics sheet and incubated at 37° C. for one hour. The plate was then read in a Perkin-Elmer fluorescent plate reader, excitation 520 nm, emission 595 nm, slit widths: Ex 15 nm, Em 20 nm. For the purposes of comparison, bbATP (a P2X7 receptor agonist) and pyridoxal 5-phosphate (a P2X7 receptor antagonist) were used separately in the test as controls. From the readings obtained, a pIC50 figure was calculated for each test compound, this figure being the negative logarithm of the concentration of test compound necessary to reduce the bbATP agonist activity by 50%.

[3] = Bioavailability - Rat PK; format: in vivo, male Sprague Dawley rats; settings: male, Sprague Dawley, plasma, po 5 mg/kg vs iv 3 mg/kg
Procedure: Pharmacokinetic parameters and concepts are used in DMPK to describe the fate of a compound in the body. The distribution and excretion of a compound are reflected in the plasma concentration-time profile. By appropriate dosing, sampling and analysis key parameters (clearance, volume, half-life, bioavailability etc.) can be determined.
Test compounds were typically dosed intravenously to the right lateral tail vein of male Sprague Dawley rats at a dose level of 3 mg/kg (1 ml/kg) in DMA:water (40:60 v/v). Rats were dosed orally at a dose level of 5 mg/kg (2 ml/kg) in 0.5% hydroxypropylmethylcellulose (HPMC, w/v)/0.1% Tween 80 (v/v) in water). […]
To determine the plasma levels of test compound, 50 μl of methanol was added to 50 μl of each of the test samples, whilst 40 μl of methanol was added to the 50 μl aliquots of control plasma containing 10 μl spikes of authentic standard used to create a calibration line and QCs. […] The resultant supernatants were analysed by HPLC-MSMS after an appropriate, selective and sensitive method had been created by optimizing both cone voltage and collision energy.
Pharmacokinetic parameters were derived from concentration-time using non-compartmental analysis in WinNonLin®. Bioavailability was calculated using the following equation F=AUCPO*DoseIV/AUCIV*DosePO.

[4] = system: primary rat hepatocytes; experiment: In vitro phospholipidosis protocol; format: cell-based, Han Wistar rats
Procedure: Assessment of a compounds potential to induce phospholipidosis was determined by an in vitro fluorescent assay which reports the accumulation of phospholipids in primary rat hepatocytes. Hepatocytes were isolated from Han Wistar rats by a 2-stage collagenase digest method. The hepatocytes were then plated on collagen coated 96-well plates in William's E medium. The cells were left to adhere for 1 hour then the media was replaced with a solution of 250 μg·ml^−1 collagen in Hepatozyme cell culture medium.
Cells were then cultured for 48 hours with the medium being changed at 24 hours. At 48 hours post isolation the medium was changed to Hepatozyme supplemented with the fluorescent phospholipid N-(6-tetramethylrhodaminethiocarbamoyl)-1,2-dihexadecanoyl-sn-glycero-3-phosphoethanolamine (DHPE-TRITC) (5 μg·ml^−1). At this time, test compounds were added to the hepatocytes at a range of concentrations in a serial dilution with a final concentration of 0.4% dimethylsulfoxide (used as solvent for test compounds). […]
Images of the hepatocytes were then acquired using an automated microscope platform (GE In Cell Analyser 3000). […] The quantified accumulation observed with test compounds was then normalised to a range of 0, representing the accumulation observed in cells exposed to vehicle only, and 1, representing cells exposed to 10 μM amiodarone. […]

Structure (SMILES) | IC50 [1] [nM] | P2X7:hERG Ratio [1] | IC50 [2] [nM] | melting point | bioavailability [3] [%] | minimum toxic concentration ([4]; lowest dose that caused >50% cell toxicity, primary rat hepatocytes) [µM] | phospholipid (DHPE-TRITC) accumulation ([4]; maximum test concentration of 250 uM, normalised 0 = vehicle, 1 = 10 μM amiodarone)
C[C@H]1CCC[C@@](O)(CNC(=O)c2c(Cl)ccc3nc(N4CCC(C)(O)C4)ccc23)C1 (single isomer, unassigned) [Example 4 - isomer 2] | > 100000 | >10,000 | 10 | – | – | – | –
C[C@H]1CCC[C@@](O)(CNC(=O)c2c(Cl)ccc3nc(N4CC[C@H](O)C4)ccc23)C1 [Example 1, 6-Chloro-N-{[(1S,3S)-1-hydroxy-3-methylcyclohexyl]methyl}-2-[(3S)-3-hydroxypyrrolidin-1-yl]quinoline-5-carboxamide] | > 100000 | >10,000 | 7.94 | 222 °C | – | – | –
C[C@H]1CCC[C@@](O)(CNC(=O)c2c(Cl)ccc3nc(N4CC[C@@H](O)C4)ccc23)C1 [Example 2, 6-Chloro-N-{[(1S,3S)-1-hydroxy-3-methylcyclohexyl]methyl}-2-[(3R)-3-hydroxypyrrolidin-1-yl]quinoline-5-carboxamide] | > 100000 | >10,000 | 7.94 | 222 to 223 °C | 59 | > 250 | no measurable accumulation
C[C@H]1CCC[C@@](O)(CNC(=O)c2c(Cl)ccc3nc(N4CCC(O)CC4)ccc23)C1 [Example 3, 6-Chloro-N-{[(1S,3S)-1-hydroxy-3-methylcyclohexyl]methyl}-2-(4-hydroxypiperidin-1-yl)quinoline-5-carboxamide] | > 100000 | >10,000 | 7.94 | 120 °C (dec.) | – | – | –
C[C@H]1CCC[C@@](O)(CNC(=O)c2c(Cl)ccc3nc(N4CCC(C)(O)C4)ccc23)C1 (stereo partly drawn) [Example 4, 6-Chloro-N-{[(1S,3S)-1-hydroxy-3-methylcyclohexyl]methyl}-2-(3-hydroxy-3-methylpyrrolidin-1-yl)quinoline-5-carboxamide] | – | – | – | 195 to 200 °C (dec.) | – | – | –
